Laboratory results reported in US11325938B2, “CD73 inhibitors” (ORIC Pharmaceuticals, Inc., priority 2018, dated 2022).

Molecular target: CD73 (Homo sapiens (Human), UniProt P21589)
Assay: Biochemical assay: inhibition of CD73 activity (AMP hydrolysis, Malachite Green readout)
Details: CD73 0.3208 nM, AMP 15 μM, 25 mM Tris-HCl pH 7.4, RT, absorbance 620 nm
How it was run: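 Human CD73 (320 pM final) preincubated 15 min at RT with compounds (10-point ½-log titration from 100 μM, duplicates) in 25 mM Tris-HCl pH 7.4, 5 mM MgCl2, 0.01% Brij-35, 0.01% BSA. 15 μM AMP added, 10 min at RT; released phosphate read by Malachite Green absorbance; IC50 determined.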

Chain of CD73 (P21589 27-574): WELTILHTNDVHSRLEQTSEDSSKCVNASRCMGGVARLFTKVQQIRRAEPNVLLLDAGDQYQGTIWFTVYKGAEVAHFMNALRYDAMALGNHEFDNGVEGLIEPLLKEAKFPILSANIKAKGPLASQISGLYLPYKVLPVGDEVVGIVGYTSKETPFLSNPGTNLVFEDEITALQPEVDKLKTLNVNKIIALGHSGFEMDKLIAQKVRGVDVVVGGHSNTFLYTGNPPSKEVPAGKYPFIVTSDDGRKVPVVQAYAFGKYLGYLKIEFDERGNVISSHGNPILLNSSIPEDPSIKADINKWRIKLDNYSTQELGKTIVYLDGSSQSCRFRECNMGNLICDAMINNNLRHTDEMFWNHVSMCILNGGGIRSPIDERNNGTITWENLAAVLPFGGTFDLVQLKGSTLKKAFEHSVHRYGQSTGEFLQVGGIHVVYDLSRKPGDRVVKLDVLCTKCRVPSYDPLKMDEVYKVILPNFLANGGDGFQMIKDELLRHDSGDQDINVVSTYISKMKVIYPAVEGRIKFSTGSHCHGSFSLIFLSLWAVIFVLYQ

IC50	Compound
≤ 100 nM	CC(CO)(OC[C@H]1O[C@@H](n2nnc3c(N[C@@H]4CCc5ccccc54)nc(Cl)nc32)[C@H](O)[C@@H]1O)P(=O)(O)O (stereo partly drawn) [Example 78, (2-(((2R,3S,4R,5R)-5-(5-chloro-7-(((R)-2,3-dihydro-1H-inden-1-yl)amino)-3H-[1,2,3]triazolo[4,5-d]pyrimidin-3-yl)-3,4-dihydroxytetrahydrofuran-2-yl)methoxy)-1-hydroxypropan-2-yl)phosphonic acid]
≤ 100 nM	O=P(O)(O)C(CO)(Cc1ccccn1)OC[C@H]1O[C@@H](n2ncc3c(NC4CCCC4)nc(Cl)nc32)[C@H](O)[C@@H]1O (stereo partly drawn) [Example 93, (2-(((2R,3S,4R,5R)-5-(6-chloro-4-(cyclopentylamino)-1H-pyrazolo[3,4-d]pyrimidin-1-yl)-3,4-dihydroxytetrahydrofuran-2-yl)methoxy)-1-hydroxy-3-(pyridin-2-yl)propan-2-yl)phosphonic acid]
≤ 100 nM	CCS(=O)(=O)C[C@](C)(OC[C@H]1O[C@@H](n2ncc3c(NC4CCCC4)nc(Cl)nc32)[C@H](O)[C@@H]1O)P(=O)(O)O [Example 137, ((R)-2-(((2R,3S,4R,5R)-5-(6-chloro-4-(cyclopentylamino)-1H-pyrazolo[3,4-d]pyrimidin-1-yl)-3,4-dihydroxytetrahydrofuran-2-yl)methoxy)-1-(ethylsulfonyl)propan-2-yl)phosphonic acid]
≤ 100 nM	O=P(O)(O)[C@@](CO)(Cc1nn[nH]n1)OC[C@H]1O[C@@H](n2ncc3c(NCC4CC4)nc(Cl)nc32)[C@H](O)[C@@H]1O (racemic) [Example 197, rac-((R)-2-(((2R,3S,4R,5R)-5-(6-chloro-4-((cyclopropylmethyl)amino)-1H-pyrazolo[3,4-d]pyrimidin-1-yl)-3,4-dihydroxytetrahydrofuran-2-yl)methoxy)-1-hydroxy-3-(2H-tetrazol-5-yl)propan-2-yl)phosphonic acid]
≤ 100 nM	COCC(C)(OC[C@H]1O[C@@H](n2ncc3c(N[C@@H]4CCc5ccccc54)nc(Cl)nc32)[C@H](O)[C@@H]1O)P(=O)(O)O (stereo partly drawn) [Example 77, (2-(((2R,3S,4R,5R)-5-(6-chloro-4-(((R)-2,3-dihydro-1H-inden-1-yl)amino)-1H-pyrazolo[3,4-d]pyrimidin-1-yl)-3,4-dihydroxytetrahydrofuran-2-yl)methoxy)-1-methoxypropan-2-yl)phosphonic acid]
≤ 100 nM	O=C(O)c1ccccc1COCC(CO)(OC[C@H]1O[C@@H](n2ncc3c(NC4CCCC4)nc(Cl)nc32)[C@H](O)[C@@H]1O)P(=O)(O)O (mixture of isomers) [Example 227, rac-2-((2-(((2R,3S,4R,5R)-5-(6-chloro-4-(cyclopentylamino)-1H-pyrazolo[3,4-d]pyrimidin-1-yl)-3,4-dihydroxytetrahydrofuran-2-yl)methoxy)-3-hydroxy-2-phosphonopropoxy)methyl)benzoic acid]
≤ 100 nM	CC1(Nc2nc(Cl)nc3c2cnn3[C@@H]2O[C@H](CO[C@@](C)(CO)P(=O)(O)O)[C@@H](O)[C@H]2O)CCCC1 [Example 105, ((R)-2-(((2R,3S,4R,5R)-5-(6-chloro-4-((1-methylcyclopentyl)amino)-1H-pyrazolo[3,4-d]pyrimidin-1-yl)-3,4-dihydroxytetrahydrofuran-2-yl)methoxy)-1-hydroxypropan-2-yl)phosphonic acid]
≤ 100 nM	CC(C)(O)C#Cc1nc(NC2CCCC2)c2cnn([C@@H]3O[C@H](COC(CO)(CO)P(=O)(O)O)[C@@H](O)[C@H]3O)c2n1 (racemic) [Example 224, rac-(2-(((2R,3S,4R,5R)-5-(4-(cyclopentylamino)-6-(3-hydroxy-3-methylbut-1-yn-1-yl)-1H-pyrazolo[3,4-d]pyrimidin-1-yl)-3,4-dihydroxytetrahydrofuran-2-yl)methoxy)-1,3-dihydroxypropan-2-yl)phosphonic acid]
≤ 100 nM	O=P(O)(O)[C@](CO)(Cc1nn[nH]n1)OC[C@H]1O[C@@H](n2ncc3c(NC4CCCC4)nc(Cl)nc32)[C@H](O)[C@@H]1O [Example 103, ((S)-2-(((2R,3S,4R,5R)-5-(6-chloro-4-(cyclopentylamino)-1H-pyrazolo[3,4-d]pyrimidin-1-yl)-3,4-dihydroxytetrahydrofuran-2-yl)methoxy)-1-hydroxy-3-(2H-tetrazol-5-yl)propan-2-yl)phosphonic acid]
≤ 100 nM	C[C@](CS(C)(=O)=O)(OC[C@H]1O[C@@H](n2ncc3c(NC4CCCC4)nc(Cl)nc32)[C@H](O)[C@@H]1O)P(=O)(O)O [Example 73, ((S)-2-(((2R,3S,4R,5R)-5-(6-chloro-4-(cyclopentylamino)-1H-pyrazolo[3,4-d]pyrimidin-1-yl)-3,4-dihydroxytetrahydrofuran-2-yl)methoxy)-1-(methyslulfonyl)propan-2-yl)phosphonic acid]
≤ 100 nM	O=P(O)(O)C(CO)(Cc1cc(O)no1)OC[C@H]1O[C@@H](n2ncc3c(NC4CCCC4)nc(Cl)nc32)[C@H](O)[C@@H]1O (mixture of isomers) [Example 195, rac-(2-(((2R,3S,4R,5R)-5-(6-chloro-4-(cyclopentylamino)-1H-pyrazolo[3,4-d]pyrimidin-1-yl)-3,4-dihydroxytetrahydrofuran-2-yl)methoxy)-1-hydroxy-3-(3-hydroxyisoxazol-5-yl)propan-2-yl)phosphonic acid]
≤ 100 nM	O=P(O)(O)CS(=O)(=O)C[C@H]1O[C@@H](n2nnc3c(NCc4ccccc4Cl)cc(Cl)nc32)[C@H](O)[C@@H]1O [Example 27, (((((2S,3S,4R,5R)-5-(5-chloro-7-((2-chlorobenzyl)amino)-3H-[1,2,3]triazolo[4,5-b]pyridin-3-yl)-3,4-dihydroxytetrahydrofuran-2-yl)methyl)sulfonyl)methyl)phosphonic acid]
≤ 100 nM	COCC(C)(OC[C@H]1O[C@@H](n2ncc3c(NC4CCCC4)nc(CO)nc32)[C@H](O)[C@@H]1O)P(=O)(O)O (stereo partly drawn) [Example 90, (2-(((2R,3S,4R,5R)-5-(4-(Cyclopentylamino)-6-(hydroxymethyl)-1H-pyrazolo[3,4-d]pyrimidin-1-yl)-3,4-dihydroxytetrahydrofuran-2-yl)methoxy)-1-methoxypropan-2-yl)phosphonic acid]
> 1000 nM	CN(C)CC(C)(OC[C@H]1O[C@@H](n2ncc3c(NC4CCCC4)nc(Cl)nc32)[C@H](O)[C@@H]1O)P(=O)(O)O (stereo partly drawn) [Example 81, (2-(((2R,3S,4R,5R)-5-(6-chloro-4-(cyclopentylamino)-1H-pyrazolo[3,4-d]pyrimidin-1-yl)-3,4-dihydroxytetrahydrofuran-2-yl)methoxy)-1-(dimethylamino)propan-2-yl)phosphonic acid]
≤ 100 nM	O=P(O)(O)C(CO)(Cc1nn[nH]n1)OC[C@H]1O[C@@H](n2ncc3c(NC4CCCC4)nc(Cl)nc32)[C@H](O)[C@@H]1O (stereo partly drawn) [Example 84, (2-(((2R,3S,4R,5R)-5-(6-Chloro-4-(cyclopentylamino)-1H-pyrazolo[3,4-d]pyrimidin-1-yl)-3,4-dihydroxytetrahydrofuran-2-yl)methoxy)-1-hydroxy-3-(2H-tetrazol-5-yl)propan-2-yl)phosphonic acid]
≤ 100 nM	C[C@H](Nc1nc(Cl)nc2c1cnn2[C@@H]1O[C@H](COC(C)(CO)P(=O)(O)O)[C@@H](O)[C@H]1O)c1ccc(F)cc1 (mixture of isomers) [Example 183, rac-(2-(((2R,3S,4R,5R)-5-(6-chloro-4-(((S)-1-(4-fluorophenyl)ethyl)amino)-1H-pyrazolo[3,4-d]pyrimidin-1-yl)-3,4-dihydroxytetrahydrofuran-2-yl)methoxy)-1-hydroxypropane-2-yl)phosphonic acid]
≤ 100 nM	O=P(O)(O)C(CO)(Cc1nn[nH]n1)OC[C@H]1O[C@@H](n2ncc3c(NCC4CC4)nc(Cl)nc32)[C@H](O)[C@@H]1O (mixture of isomers) [Example 184, rac-(2-(((2R,3S,4R,5R)-5-(6-chloro-4-((cyclopropylmethyl)amino)-1H-pyrazolo[3,4-d]pyrimidin-1-yl)-3,4-dihydroxytetrahydrofuran-2-yl)methoxy)-1-hydroxy-3-(2H-tetrazol-5-yl)propan-2-yl)phosphonic acid]
≤ 100 nM	C[C@](Cc1nn[nH]n1)(OC[C@H]1O[C@@H](n2ncc3c(NC4CCCC4)nc(Cl)nc32)[C@H](O)[C@@H]1O)P(=O)(O)O [Example 120, ((S)-2-(((2R,3S,4R,5R)-5-(6-chloro-4-(cyclopentylamino)-1H-pyrazolo[3,4-d]pyrimidin-1-yl)-3,4-dihydroxytetrahydrofuran-2-yl)methoxy)-1-(2H-tetrazol-5-yl)propan-2-yl)phosphonic acid]
≤ 100 nM	CC(CO)(OC[C@H]1O[C@@H](n2ncc3c(N[C@@H]4CC[C@H]5CCC[C@H]54)nc(Cl)nc32)[C@H](O)[C@@H]1O)P(=O)(O)O (stereo partly drawn) [Example 133, (2-(((2R,3S,4R,5R)-5-(6-chloro-4-(((1R,3aR,6aR)-octahydropentalen-1-yl)amino)-1H-pyrazolo[3,4-d]pyrimidin-1-yl)-3,4-dihydroxytetrahydrofuran-2-yl)methoxy)-1-hydroxypropan-2-yl)phosphonic aci]
≤ 100 nM	O=P(O)(O)[C@@H](CO)OC[C@H]1O[C@@H](n2nnc3c(NC4CCCC4)cc(Cl)nc32)[C@H](O)[C@@H]1O [Example 149, ((S)-1-(((2R,3S,4R,5R)-5-(5-chloro-7-(cyclopentylamino)-3H-[1,2,3]triazolo[4,5-b]pyridin-3-yl)-3,4-dihydroxytetrahydrofuran-2-yl)methoxy)-2-hydroxyethyl)phosphonic acid]
≤ 100 nM	C[C@](CO)(OC[C@H]1O[C@@H](n2ncc3c(N[C@@H]4CCc5cc(F)ccc54)nc(Cl)nc32)[C@H](O)[C@@H]1O)P(=O)(O)O [Example 121, ((S)-2-(((2R,3S,4R,5R)-5-(6-chloro-4-(((R)-5-fluoro-2,3-dihydro-1H-inden-1-yl)amino)-1H-pyrazolo[3,4-d]pyrimidin-1-yl)-3,4-dihydroxytetrahydrofuran-2-yl)methoxy)-1-hydroxypropan-2-yl)phosphonic acid]
